US10301291B2, “Imidazole derivative having JNK inhibitory activity and use thereof” (SAMJIN PHARMACEUTICAL CO., LTD., priority 2016, dated 2019)

How the values were obtained:
Assay in all cases: Kinase profiling service (Reaction Biology Corp.)
Assay type in all cases: biochemical
Conditions in all cases: compound 10 μM
JNK3 = JNK3 (Homo sapiens (Human), UniProt P53779)
Procedure: (§1) An inhibitory activity of the compound (10 μM) of Example 34 against various protein kinases was measured by means of a kinase profiling service (ICso profiler express) of Reaction Biology Corp., wherein ICso, a concentration at which JNK enzyme activity was inhibited 50%, was also measured by sequentially reducing a concentration of the compound.

PKA = PKA (Homo sapiens (Human), UniProt P17612)
Procedure: as §1

MEK1 = MEK1 (Homo sapiens (Human), UniProt Q02750)
Sequence of MEK1 (Q02750 whole entry): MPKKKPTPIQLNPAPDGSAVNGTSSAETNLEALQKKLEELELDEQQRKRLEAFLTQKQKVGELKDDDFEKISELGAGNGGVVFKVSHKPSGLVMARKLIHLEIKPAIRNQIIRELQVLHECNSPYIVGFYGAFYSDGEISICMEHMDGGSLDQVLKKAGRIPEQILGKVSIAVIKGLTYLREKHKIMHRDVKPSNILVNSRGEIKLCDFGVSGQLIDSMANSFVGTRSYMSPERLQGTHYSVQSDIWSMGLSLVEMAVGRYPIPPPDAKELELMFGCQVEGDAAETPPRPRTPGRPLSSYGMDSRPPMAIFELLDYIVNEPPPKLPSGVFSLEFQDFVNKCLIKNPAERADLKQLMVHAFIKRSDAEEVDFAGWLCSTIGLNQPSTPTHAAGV
Procedure: as §1

c-Src = c-Src (Homo sapiens (Human), UniProt P12931)
Sequence of c-Src (P12931 whole entry, looked up): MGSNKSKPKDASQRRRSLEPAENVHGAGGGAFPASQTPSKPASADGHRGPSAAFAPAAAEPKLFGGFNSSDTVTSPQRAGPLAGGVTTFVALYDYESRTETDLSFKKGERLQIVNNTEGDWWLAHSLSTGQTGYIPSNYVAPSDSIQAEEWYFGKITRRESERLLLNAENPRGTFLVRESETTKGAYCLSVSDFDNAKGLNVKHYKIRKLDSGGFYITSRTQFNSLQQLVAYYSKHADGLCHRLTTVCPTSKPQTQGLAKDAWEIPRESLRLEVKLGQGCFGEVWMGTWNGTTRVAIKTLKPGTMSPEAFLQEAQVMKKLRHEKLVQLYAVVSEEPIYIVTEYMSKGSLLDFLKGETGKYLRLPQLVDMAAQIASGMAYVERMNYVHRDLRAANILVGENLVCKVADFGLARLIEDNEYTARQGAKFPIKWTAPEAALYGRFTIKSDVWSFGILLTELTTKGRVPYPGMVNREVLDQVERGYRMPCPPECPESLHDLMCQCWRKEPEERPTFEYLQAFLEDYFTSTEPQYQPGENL
Procedure: as §1

GSK3b = GSK3b (Homo sapiens (Human), UniProt P49841)
Sequence of GSK3b (P49841 whole entry): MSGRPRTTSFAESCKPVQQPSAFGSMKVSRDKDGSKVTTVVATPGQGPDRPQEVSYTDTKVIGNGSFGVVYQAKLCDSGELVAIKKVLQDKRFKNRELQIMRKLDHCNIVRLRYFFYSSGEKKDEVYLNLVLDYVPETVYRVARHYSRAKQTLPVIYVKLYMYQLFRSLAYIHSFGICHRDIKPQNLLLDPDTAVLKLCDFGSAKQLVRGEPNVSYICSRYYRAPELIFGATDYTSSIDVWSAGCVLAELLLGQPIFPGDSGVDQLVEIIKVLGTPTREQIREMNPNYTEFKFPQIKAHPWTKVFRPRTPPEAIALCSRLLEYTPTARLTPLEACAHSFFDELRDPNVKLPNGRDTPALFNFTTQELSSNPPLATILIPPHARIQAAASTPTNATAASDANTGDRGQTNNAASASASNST
Procedure: as §1

Aurora A = Aurora A (Homo sapiens (Human), UniProt O14965)
Sequence of Aurora A (O14965 whole entry): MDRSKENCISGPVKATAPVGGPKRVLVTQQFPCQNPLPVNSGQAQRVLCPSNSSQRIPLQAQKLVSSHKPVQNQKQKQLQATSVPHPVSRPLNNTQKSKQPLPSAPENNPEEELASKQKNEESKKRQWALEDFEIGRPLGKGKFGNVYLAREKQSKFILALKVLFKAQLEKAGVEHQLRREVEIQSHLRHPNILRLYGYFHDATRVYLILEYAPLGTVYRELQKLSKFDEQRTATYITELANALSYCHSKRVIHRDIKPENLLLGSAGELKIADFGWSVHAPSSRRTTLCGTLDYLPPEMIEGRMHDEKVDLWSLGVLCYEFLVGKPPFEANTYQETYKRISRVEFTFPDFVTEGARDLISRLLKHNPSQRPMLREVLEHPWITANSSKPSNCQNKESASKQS
Procedure: as §1

ERK2/MAPK1 = ERK2/MAPK1 (Homo sapiens (Human), UniProt P28482)
Sequence of ERK2/MAPK1 (P28482 whole entry): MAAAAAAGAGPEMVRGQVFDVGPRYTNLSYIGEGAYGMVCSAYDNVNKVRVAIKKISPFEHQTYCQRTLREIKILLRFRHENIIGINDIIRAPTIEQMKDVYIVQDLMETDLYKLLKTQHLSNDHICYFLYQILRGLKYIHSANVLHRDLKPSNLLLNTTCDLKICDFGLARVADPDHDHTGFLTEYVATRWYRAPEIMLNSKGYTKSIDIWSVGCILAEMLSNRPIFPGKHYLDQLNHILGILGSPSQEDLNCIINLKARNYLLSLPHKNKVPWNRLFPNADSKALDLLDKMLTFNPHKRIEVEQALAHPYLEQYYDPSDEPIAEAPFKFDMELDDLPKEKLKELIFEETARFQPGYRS
Procedure: as §1

MLK1/MAP3K9 = MLK1/MAP3K9 (Homo sapiens (Human), UniProt P80192)
Sequence of MLK1/MAP3K9 (P80192 whole entry): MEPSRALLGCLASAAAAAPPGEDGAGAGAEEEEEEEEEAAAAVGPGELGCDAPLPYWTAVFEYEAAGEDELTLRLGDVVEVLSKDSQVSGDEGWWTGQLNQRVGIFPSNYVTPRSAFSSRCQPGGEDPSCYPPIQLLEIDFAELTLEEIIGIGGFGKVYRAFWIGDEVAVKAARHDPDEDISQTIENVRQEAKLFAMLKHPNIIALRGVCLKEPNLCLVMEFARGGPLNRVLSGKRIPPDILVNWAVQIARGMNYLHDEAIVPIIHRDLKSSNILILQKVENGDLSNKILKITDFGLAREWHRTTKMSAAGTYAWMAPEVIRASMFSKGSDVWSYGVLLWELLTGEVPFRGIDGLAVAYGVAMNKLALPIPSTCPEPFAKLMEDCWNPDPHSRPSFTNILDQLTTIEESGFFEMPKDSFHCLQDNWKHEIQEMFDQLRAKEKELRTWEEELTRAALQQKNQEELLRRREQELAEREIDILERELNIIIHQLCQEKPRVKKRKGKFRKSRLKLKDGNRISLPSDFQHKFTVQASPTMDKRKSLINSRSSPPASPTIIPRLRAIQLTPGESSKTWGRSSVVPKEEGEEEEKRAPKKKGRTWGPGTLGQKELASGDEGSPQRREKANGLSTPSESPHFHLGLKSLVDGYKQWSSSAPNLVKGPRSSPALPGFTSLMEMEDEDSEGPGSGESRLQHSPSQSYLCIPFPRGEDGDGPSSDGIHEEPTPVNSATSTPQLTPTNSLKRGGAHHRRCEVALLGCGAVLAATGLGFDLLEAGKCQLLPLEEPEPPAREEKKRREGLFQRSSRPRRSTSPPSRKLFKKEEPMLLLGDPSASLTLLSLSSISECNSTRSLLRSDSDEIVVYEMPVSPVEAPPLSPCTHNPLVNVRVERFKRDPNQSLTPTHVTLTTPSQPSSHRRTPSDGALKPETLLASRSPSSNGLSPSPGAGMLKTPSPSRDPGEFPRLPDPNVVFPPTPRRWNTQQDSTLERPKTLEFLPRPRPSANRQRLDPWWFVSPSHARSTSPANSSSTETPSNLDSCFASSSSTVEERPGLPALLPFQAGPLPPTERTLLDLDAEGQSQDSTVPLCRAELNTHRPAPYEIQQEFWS
Procedure: as §1

JNK1 = JNK1 (Homo sapiens (Human), UniProt P45983)
Sequence of JNK1 (P45983 whole entry): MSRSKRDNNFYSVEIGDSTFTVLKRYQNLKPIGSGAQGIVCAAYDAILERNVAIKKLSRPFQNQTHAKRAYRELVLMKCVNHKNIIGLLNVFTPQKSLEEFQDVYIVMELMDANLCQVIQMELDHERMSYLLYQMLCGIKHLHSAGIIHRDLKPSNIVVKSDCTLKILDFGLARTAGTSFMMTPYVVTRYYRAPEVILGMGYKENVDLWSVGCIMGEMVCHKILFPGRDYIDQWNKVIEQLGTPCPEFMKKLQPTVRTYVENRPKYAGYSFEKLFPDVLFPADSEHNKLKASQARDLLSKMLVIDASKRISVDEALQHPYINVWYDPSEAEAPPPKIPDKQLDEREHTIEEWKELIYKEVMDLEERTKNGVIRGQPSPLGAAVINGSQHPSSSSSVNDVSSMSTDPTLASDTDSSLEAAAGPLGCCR
Procedure: as §1

ROS/ROS1 = ROS/ROS1 (Homo sapiens (Human), UniProt P08922)
Procedure: as §1

[1] = Data 1 and Data 2, read-out: % Enzyme Activity (relative to DMSO controls)

Sequence of JNK3 (P53779 whole entry): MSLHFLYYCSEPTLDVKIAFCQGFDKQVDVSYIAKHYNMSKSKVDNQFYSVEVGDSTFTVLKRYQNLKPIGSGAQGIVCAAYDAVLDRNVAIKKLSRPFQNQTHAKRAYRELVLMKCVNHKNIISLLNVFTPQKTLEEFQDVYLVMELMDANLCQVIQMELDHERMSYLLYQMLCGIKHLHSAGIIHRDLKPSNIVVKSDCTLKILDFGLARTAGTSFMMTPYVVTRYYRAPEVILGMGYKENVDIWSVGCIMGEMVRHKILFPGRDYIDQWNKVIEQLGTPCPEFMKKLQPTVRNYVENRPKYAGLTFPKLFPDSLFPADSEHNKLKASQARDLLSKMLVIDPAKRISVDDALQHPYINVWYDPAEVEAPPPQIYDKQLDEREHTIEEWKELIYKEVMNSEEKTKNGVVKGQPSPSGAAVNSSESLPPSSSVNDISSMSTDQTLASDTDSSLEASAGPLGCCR

- % Enzyme Activity (relative to DMSO controls) (JNK3; Data 1 and Data 2): 4.81%
- remaining activity at 10 µM (JNK3; [1]): 5.04%
- % Enzyme Activity (relative to DMSO controls) (PKA; Data 1 and Data 2): 96.45%
- remaining activity at 10 µM (PKA; [1]): 97.3%
- % Enzyme Activity (relative to DMSO controls) (MEK1; Data 1 and Data 2): 104.84%
- remaining activity at 10 µM (MEK1; [1]): 105%
- % Enzyme Activity (relative to DMSO controls) (c-Src; Data 1 and Data 2): 92.54%
- remaining activity at 10 µM (c-Src; [1]): 94%
- % Enzyme Activity (relative to DMSO controls) (GSK3b; Data 1 and Data 2): 29.80%
- remaining activity at 10 µM (GSK3b; [1]): 29.9%
- % Enzyme Activity (relative to DMSO controls) (Aurora A; Data 1 and Data 2): 101.98%
- remaining activity at 10 µM (Aurora A; [1]): 102%
- % Enzyme Activity (relative to DMSO controls) (ERK2/MAPK1; Data 1 and Data 2): 97.70%
- remaining activity at 10 µM (ERK2/MAPK1; [1]): 98%
- % Enzyme Activity (relative to DMSO controls) (MLK1/MAP3K9; Data 1 and Data 2): 93.90%
- remaining activity at 10 µM (MLK1/MAP3K9; [1]): 95.7%
- % Enzyme Activity (relative to DMSO controls) (JNK1; Data 1 and Data 2): 2.84%
- remaining activity at 10 µM (JNK1; [1]): 3.04%
- % Enzyme Activity (relative to DMSO controls) (ROS/ROS1; Data 1 and Data 2): 95.23%
- remaining activity at 10 µM (ROS/ROS1; [1]): 97.8%
SMILES: N#CCc1cnc(-c2ccc3ccccc3c2)n1-c1ccnc(NC2CCCN(C(=O)C3CC3)C2)n1 (centres unmarked) [Example 34, 2-(1-(2-(1-(cyclopropanecarbonyl)piperidine-3-ylamino)pyrimidine-4-yl)-2-(naphthalene-2-yl)-1H-imidazole-5-yl)acetonitrile]
